# Measured values as given in the NIST ThermoML archive (doi:10.1016/j.jct.2015.02.006).
# ± gives the expanded uncertainty stated by the source.
# Details: Liquid, Closed cell (Static) method
Structure (SMILES),vapor or sublimation pressure (303.15 K) [kPa],vapor or sublimation pressure (318.15 K) [kPa],vapor or sublimation pressure (333.15 K) [kPa]
CC1CO1 (centres undefined) [methyloxirane],86.9 ± 1.2,147.85 ± 1.9,237.88 ± 2.8
CCCO [propan-1-ol],3.63 ± 0.31,9.01 ± 0.34,19.93 ± 0.39
CCO [ethanol],10.42 ± 0.38,23.02 ± 0.46,46.63 ± 0.58
